Blank lines part the entries; values can stand above or below the compound they belong to.
Key:
Assay type in all cases: physicochemical
[1] = USP II basket dissolution of carbamazepine/PVP powders in distilled water; conditions: 200 mg dose, 37° C., 50 rpm, over the 4 h time period, FIG. 7
Experimental: (§1) The dissolution rate was analysed using standard USP II dissolution apparatus using the basket assembly dissolution vessels. Standard 200 mg dose powders were investigated to mimic a patient dose, with dissolution conditions maintained at 37° C. and the basket apparatus rotated at 50 rpm in distilled water. Powders were placed in the basket and submerged in to the dissolution apparatus and ran over 4 h. Samples were taken at predetermined time intervals, with each sample volume replaced with the same amount of fresh dissolution media to maintain sink conditions. The samples were filtered appropriately and analysed for drug content using HPLC apparatus at each of the time points. All results were taken in triplicate, and are represented in FIG. 7.

[2] = USP II basket dissolution of phenytoin/PVP powders in distilled water; conditions: 200 mg dose, 37° C., 50 rpm, 4 h, FIG. 9
Experimental: as §1, with “9.” for “7.”

[3] = Dissolution of carbamazepine dry coated with micronized sodium lauryl sulphate (FIG. 10)
[4] = USP II basket dissolution of piroxicam/PVP powders in 0.1N hydrochloric acid; conditions: 20 mg dose, 37° C., 50 rpm, end of the 4 h interval, FIG. 8
Experimental: as §1, with “20” for “200”, “0.1N hydrochloric acid.” for “distilled water.”, “8.” for “7.”

[5] = USP II basket dissolution of flucloxacillin sodium/polymer powders in pH 6.8 phosphate buffer; conditions: 250 mg dose, 37° C., 50 rpm, 60 mins, FIG. 13
Experimental: as §1, with “250” for “200”, “pH 6.8 phosphate buffer.” for “distilled water.”, “60 mins.” for “4 h.”, “and are represented in FIG. 7.” left out

drug release [1]: very poor release
SMILES: NC(=O)N1c2ccccc2C=Cc2ccccc21 [micronized carbamazepine, carbamazepine]

release [2]: 4.7%
SMILES: O=C1NC(=O)C(c2ccccc2)(c2ccccc2)N1 [phenytoin alone, phenytoin]

drug release [3]: around 38%
SMILES: NC(=O)N1c2ccccc2C=Cc2ccccc21 [off the shelf carbamazepine (CBZ), carbamazepine]

drug release [4]: 29.7%
SMILES: CN1C(C(=O)Nc2ccccn2)=C(O)c2ccccc2S1(=O)=O [control piroxicam, piroxicam]

release of flucloxacillin sodium [5]: full release within a minute
SMILES: Cc1onc(-c2c(F)cccc2Cl)c1C(=O)N[C@@H]1C(=O)N2[C@@H]1SC(C)(C)[C@@H]2C(=O)O [flucloxacillin sodium]
